Source: patent publication EP1268431B1 (Wyeth, priority 2000, dated 2001)
Several values for one entry are separate records, joined by “and”; a condition that tells them apart may be missing. Equal values may be shown once. Read-outs that look alike come from different tables or passages of the source.

Tests used:
c-Src = molecular target: T1, c-Src (Homo sapiens, UniProt P12931); assay: c-Src Kinase Assay (ELISA format); format: biochemical
T1 construct: purchased Upstate Biotechnologies
Method: Inhibitors of Src (partially purified preparation purchased from Upstate Biotechnologies) tyrosine kinase activity are analyzed in an ELISA format. […] Horseradish Peroxidase (HRP)-conjugated anti-phosphotyrosine is used to detect phosphorylated peptide via a color reaction. Conditions recommended by the manufacturer are employed.
Reaction conditions: Five microliter aliquots of each compound prepared fresh at the time of the assay are added as a solution in 10mM HEPES pH 7.5, 10% DMSO to the reaction well. Thirty-five microliters of reaction mix containing Src, buffer and peptide/bovine serum albumin mix are added to the compound wells and incubated at 30°C for 10 minutes (reaction buffer: 50mM TrisHCl pH 7.5, 10mM MgCl2, 0.1mM EGTA, 0.5mM Na3VO4). The reaction is started by addition of 10 microliters of ATP, incubated at 30°C for 1 hour, and stopped by addition of 20 microliters of 0.5M EDTA. The reaction mixture with the phosphorylated peptide is then transferred to a streptavidin-coated microtiter plate (provided in the kit) and allowed to bind for 20 minutes. Unbound peptide and reaction mixture is decanted and the plate is washed with PBS six times. HRP-conjugated phosphotyrosine antibody supplied in the kit is incubated with the plate for one hour, then decanted. The plate is again washed with PBS six times.
Activity is determined as % inhibition as calculated by the formula: (1 - Abs/Abs(max)) x 100 = % inhibition.

[1] = system: Rat2 fibroblasts stably transformed with a plasmid containing a CMV promotor controlled v-Src/Hu c-Src fusion gene; assay: Anchorage Independent Src-transformed Fibroblast Proliferation Assay
[2] = Rattus norvegicus, Rat2, 120 h, read-out: anch-indep src-tx fib IC50, suspension growth, MTS on Day 5
[3] = read-out: anch-indep src-tx fib IC50, suspension growth, MTS on Day 5

T1 sequence (P12931 whole entry, species assumed): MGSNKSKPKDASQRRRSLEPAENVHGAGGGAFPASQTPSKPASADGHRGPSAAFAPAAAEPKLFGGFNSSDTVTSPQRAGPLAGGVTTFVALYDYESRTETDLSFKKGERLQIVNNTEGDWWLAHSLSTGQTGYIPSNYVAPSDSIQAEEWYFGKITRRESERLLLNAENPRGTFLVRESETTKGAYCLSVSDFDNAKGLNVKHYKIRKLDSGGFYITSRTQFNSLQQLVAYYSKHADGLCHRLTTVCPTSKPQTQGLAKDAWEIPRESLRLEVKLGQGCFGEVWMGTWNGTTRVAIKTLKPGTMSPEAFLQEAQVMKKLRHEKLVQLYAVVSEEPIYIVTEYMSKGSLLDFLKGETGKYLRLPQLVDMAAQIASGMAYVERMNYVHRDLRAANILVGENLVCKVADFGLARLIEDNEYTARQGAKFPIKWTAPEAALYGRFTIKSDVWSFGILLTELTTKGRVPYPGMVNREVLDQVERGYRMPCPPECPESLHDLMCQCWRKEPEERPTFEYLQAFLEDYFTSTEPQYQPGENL

| SMILES | IC50 (c-Src) | IC50 [1, 2] [nM] | IC50 [1, 3] [nM] | inhibition at 10 µM (c-Src; at 10 µM) [%] | IC50 ([1]; Rattus norvegicus, Rat2, 120 h, read-out: anch-indep src-tx fib IC50) [nM] |
| --- | --- | --- | --- | --- | --- |
| COc1cc(Nc2c(C#N)cnc3cc(-c4cccc(CN5CCN(C)CC5)c4)ccc23)c(Cl)cc1Cl [Example 113, 4-(2,4-Dichloro-5-methoxyanilino)-7-{3-[(4-methyl-1-piperazinyl)methyl]phenyl}-3-quinolinecarbonitrile] | 10 nM | 1400 |  |  |  |
| COc1cc(Nc2c(C#N)cnc3cc(-c4ccc(CNCCS(C)(=O)=O)o4)ccc23)c(Cl)cc1Cl [Example 77, 4-(2,4-Dichloro-5-methoxyanilino)-7-[5-({[2-(methylsulfonyl)ethyl]amino}methyl)-2-furyl]-3-quinolinecarbonitrile] | 21 nM | 420 |  |  |  |
| COc1ccc(Cl)c(Nc2c(C#N)cnc3cc(-c4csc(CN5CCOCC5)c4)ccc23)c1 [Example 131, 4-(2-chloro-5-methoxyanilino)-7-[5-(4-morpholinylmethyl)-3-thienyl]-3-quinolinecarbonitrile] | 2 nM | 90 |  |  |  |
| CCN1CCN(Cc2cc(-c3ccc4c(Nc5ccc(Cl)cc5Cl)c(C#N)cnc4c3)cs2)CC1 [Example 10, 4-(2,4-Dichloroanilino)-7-{5-[(4-ethyl-1-piperazinyl)methyl]-3-thienyl}-3-quinolinecarbonitrile] | 2.4 nM | 900 |  |  |  |
| COc1cc(Nc2c(C#N)cnc3cc(C#Cc4ccccn4)ccc23)c(Cl)cc1Cl [Example 91, 4-(2,4-Dichloro-5-methoxyanilino)-7-[2-(2-pyridinyl)ethynyl]-3-quinolinecarbonitrile] | 3.1 nM | > 10000 |  |  |  |
| CCN(CC)Cc1ccc(-c2ccc3c(Nc4cc(OC)c(Cl)cc4Cl)c(C#N)cnc3c2)cc1 [Example 87, 4-(2,4-Dichloro-5-methoxyanilino)-7-{4-[(diethylamino)methyl]phenyl}-3-quinolinecarbonitrile] | 0.46 nM | 220 |  |  |  |
| COc1cc(Nc2c(C#N)cnc3cc(-c4ccc(C(=O)O)cc4)ccc23)c(Cl)cc1Cl [Example 121, 4-[3-Cyano-4-(2,4-dichloro-5-methoxyanilino)-7-quinolinyl]benzoic acid] | 4.8 nM and 1.8 nM | > 10000 |  |  |  |
| COc1cc(Nc2c(C#N)cnc3cc(-c4ccc[nH]4)ccc23)c(Cl)cc1Cl [Example 104, 4-(2,4-Dichloro-5-methoxyanilino)-7-(1H-pyrrol-2-yl)-3-quinolinecarbonitrile] | 14 nM | 560 |  |  |  |
| COc1cc(Nc2c(C#N)cnc3cc(-c4ccc(CN5CCC[C@@H]5C(N)=O)o4)ccc23)c(Cl)cc1Cl [Example 47, (2R)-1-({5-[3-Cyano-4-(2,4-dichloro-5-methoxyanilino)-7-quinolinyl]-2-furyl}methyl)-2-pyrrolidinecarboxamide] | 1.1 nM | 1170 |  |  |  |
| COc1cc(Nc2c(C#N)cnc3cc(-c4sccc4C=O)ccc23)c(Cl)cc1Cl [Example 163, 4-(2,4-dichloro-5-methoxyanilino)-7-(3-formyl-2-thienyl)-3-quinolinecarbonitrile] | > 1000 nM | > 10000 |  |  |  |
| N#Cc1cnc2cc(-c3ccc(CN4CCOCC4)o3)ccc2c1Nc1ccc(Cl)cc1Cl [Example 13, 4-(2,4-Dichloroanilino)-7-[5-(4-morpholinylmethyl)-2-furyl]-3-quinolinecarbonitrile] | 10.4 nM and 4 nM | 1510 | 1590 |  |  |
| COc1cc(Nc2c(C#N)cnc3cc(-c4csc(CN5CCOCC5)c4)ccc23)c(Cl)cc1F [Example 79, 4-(2-chloro-4-fluoro-5-methoxyanilino)-7-[5-(4-morpholinylmethyl)-3-thienyl]-3-quinolinecarbonitrile] | 1.7 nM | 130 |  |  |  |
| COc1cc(Nc2c(C#N)cnc3cc(-c4ccc(CNCCc5ccccn5)o4)ccc23)c(Cl)cc1Cl [Example 74] | 40 nM |  | 1400 |  |  |
| COc1cc(Nc2c(C#N)cnc3cc(-c4ccc(C5OCCO5)s4)ccc23)c(Cl)cc1Cl [Example 51, 4-(2,4-Dichloro-5-methoxyanilino)-7-[5-(1,3-dioxolan-2-yl)-2-thienyl]-3-quinolinecarbonitrile] | 8.2 nM | 420 |  |  |  |
| COc1cc(Nc2c(C#N)cnc3cc(C#Cc4ccccc4)ccc23)c(Cl)cc1Cl [Example 140, 4-(2,4-dichloro-5-methoxyanilino)-7-(2-phenylethynyl)-3-quinolinecarbonitrile] | 240 nM and 200 nM | > 10000 |  |  |  |
| COc1cc(Nc2c(C#N)cnc3cc(-c4ccc(CCCCN5CCOCC5)s4)ccc23)c(Cl)cc1Cl [Example 22, 4-(2,4-Dichloro-5-methoxyanilino)-7-{5-[4-(4-morpholinyl)butyl]-2-thienyl}-3-quinolinecarbonitrile] | 6.8 nM | 600 |  |  |  |
| COc1cc(Nc2c(C#N)cnc3cc(-c4ccc(CN5CCOCC5)c(CN5CCOCC5)c4)ccc23)c(Cl)cc1C [Example 133, 7-[3,4-bis(4-morpholinylmethyl)phenyl]-4-(2-chloro-5-methoxy-4-methylanilino)-3-quinolinecarbonitrile] | 7 nM | 730 |  |  |  |
| COc1cc(Nc2c(C#N)cnc3cc(-c4ccc(Oc5ccc(CN6CCOCC6)cc5)nc4)ccc23)c(Cl)cc1Cl [Example 193, 4-(2,4-dichloro-5-methoxyanilino)-7-{6-[4-(4-morpholinylmethyl)phenoxy]-3-pyridinyl)-3-quinolinecarbonitrile] | 34 nM | > 10000 |  |  |  |
| N#Cc1cnc2cc(-c3cc(CN4CCOCC4)c(CN4CCOCC4)s3)ccc2c1Nc1ccc(Cl)cc1Cl [Example 17, 7-[4,5-Bis(4-morpholinylmethyl)-2-thienyl]-4-(2,4-dichloroanilino)-3-quinolinecarbonitrile] | 0.7 nM and 2.1 nM and 3.1 nM | 310 |  |  |  |
| COc1cc(Nc2c(C#N)cnc3cc(-c4cccc5ccccc45)ccc23)c(Cl)cc1Cl [Example 116, 4-(2,4-Dichloro-5-methoxyanilino)-7-(1-naphthyl)-3-quinolinecarbonitrile] |  | > 10000 |  | 25 |  |
| COc1cc(Nc2c(C#N)cnc3cc(-c4ccc(CNCCS(=O)(=O)c5ccccc5)cc4)ccc23)c(Cl)cc1Cl [Example 85, 4-(2,4-Dichloro-5-methoxyanilino)-7-[4-({[2-(phenylsulfonyl)ethyl]amino}methyl)phenyl]-3-quinolinecarbonitrile] | 36 nM and 41 nM | 10200 |  |  |  |
| COc1cc(Nc2c(C#N)cnc3cc(-c4csc(CN5CCOCC5)c4)ccc23)c(C)cc1Cl [Example 167, 4-(4-chloro-5-methoxy-2-methylanilino)-7-[5-(4-morpholinylmethyl)-3-thienyl]-3-quinolinecarbonitrile] | 12 nM and 16 nM | 900 |  |  |  |
| COc1cc(Nc2c(C#N)cnc3cc(-c4ccc(CN5CCCC5C(N)=O)cc4)ccc23)c(Cl)cc1Cl (stereo in doubt) [Example 84, (2R)-1-{4-[3-Cyano-4-(2,4-dichloro-5-methoxyanilino)-7-quinolinyl]benzyl}-2-pyrrolidinecarboxamide] | 7.5 nM |  |  |  | 770 |
| COc1cc(Nc2c(C#N)cnc3cc(-c4ccc(CN5CCSCC5)cc4)ccc23)c(Cl)cc1Cl [Example 153, 4-[(2,4-dichloro-5-methoxyphenyl)amino]-7-[4-(4-thiomorpholinylmethyl)phenyl]-3-quinolinecarbonitrile] |  | 2800 | 2700 |  |  |
